Experimental data as given in patent US9957267B2, “Somatostatin modulators and uses thereof” (Crinetics Pharmaceuticals, Inc., priority 2015, dated 2018).
Where two headings read alike, the source gives them in different places.

Legend:
Type in all cases: cell-based
[1] = target: T1, SSTR1 (Homo sapiens, UniProt P30872); experiment: cAMP functional agonist assay, CHO cells expressing SSTR1
T1 construct: expressed in transfected cells
Protocol: (§1) Chinese hamster ovary (CHO) cells stably expressing one of the six human or rodent somatostatin receptor subtypes are grown to 85-100% confluence on standard tissue culture dishes in F12-Ham's growth media (Hyclone) with following additives: 10% donor calf serum (Hyclone), 200 U/mL penicillin (Hyclone), 200 μg/mL streptomycin (Hyclone), 20 mM HEPES (Hyclone), 200 μg/mL hygromycin Hyclone.
(§2) General overview: All SSTR subtypes are Gi coupled G-protein coupled receptors (GPCRs) that lead to decreases in intracellular cyclic AMP (cAMP) when activated by an agonist. […] One example of an intracellular cAMP assay is described below.

[2] = target: SSTR3 (UniProt P32745); experiment: cAMP functional agonist assay, CHO cells expressing SSTR3; conditions: CHO cells stably expressing SSTR3, cAMP
Chain of SSTR3 (P32745 whole entry): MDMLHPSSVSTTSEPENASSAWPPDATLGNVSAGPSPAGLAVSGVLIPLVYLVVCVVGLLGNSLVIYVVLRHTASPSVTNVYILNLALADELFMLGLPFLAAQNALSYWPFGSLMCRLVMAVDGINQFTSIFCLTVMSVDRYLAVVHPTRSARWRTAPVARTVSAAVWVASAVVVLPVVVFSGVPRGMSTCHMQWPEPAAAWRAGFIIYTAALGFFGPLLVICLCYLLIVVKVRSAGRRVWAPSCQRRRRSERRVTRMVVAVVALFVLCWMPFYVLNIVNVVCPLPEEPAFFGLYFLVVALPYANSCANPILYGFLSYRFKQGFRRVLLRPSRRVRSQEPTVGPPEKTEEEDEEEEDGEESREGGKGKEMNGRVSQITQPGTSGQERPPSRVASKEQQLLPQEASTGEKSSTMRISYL
Protocol: as §1
(§3) General overview: All SSTR subtypes are Gi coupled G-protein coupled receptors (GPCRs) that lead to decreases in intracellular cyclic AMP (cAMP) when activated by an agonist. Therefore, measurement of intracellular cAMP levels can be used to assess whether compounds of the invention are agonists of SSTR subtypes (John Kelly, Troy Stevens, W. Joseph Thompson, and Roland Seifert, Current Protocols in Pharmacology, 2005, 2.2.1-2.2). One example of an intracellular cAMP assay is described below.

[3] = target: T2, SSTR4 (Homo sapiens, UniProt P31391); experiment: cAMP functional agonist assay, CHO cells expressing SSTR4
T2 construct: expressed in transfected cells
T2 sequence (P31391 whole entry): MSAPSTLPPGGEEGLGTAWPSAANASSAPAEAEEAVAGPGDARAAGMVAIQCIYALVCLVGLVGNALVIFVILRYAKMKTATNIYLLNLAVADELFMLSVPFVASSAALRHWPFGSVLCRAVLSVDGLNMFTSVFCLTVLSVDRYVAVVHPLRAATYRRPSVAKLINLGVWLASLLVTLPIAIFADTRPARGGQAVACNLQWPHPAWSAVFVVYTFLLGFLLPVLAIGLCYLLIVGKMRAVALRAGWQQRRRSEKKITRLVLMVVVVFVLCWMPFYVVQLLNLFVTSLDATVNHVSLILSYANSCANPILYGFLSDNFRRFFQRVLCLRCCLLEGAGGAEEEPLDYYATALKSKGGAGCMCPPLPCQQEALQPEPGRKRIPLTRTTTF
Protocol: as §1, §2

[4] = target: T3, SSTR5 (Homo sapiens, UniProt P35346); experiment: cAMP functional agonist assay, CHO cells expressing SSTR5; conditions: CHO cells stably expressing SSTR5, cAMP
T3 construct: expressed in transfected cells
T3 sequence (P35346 whole entry): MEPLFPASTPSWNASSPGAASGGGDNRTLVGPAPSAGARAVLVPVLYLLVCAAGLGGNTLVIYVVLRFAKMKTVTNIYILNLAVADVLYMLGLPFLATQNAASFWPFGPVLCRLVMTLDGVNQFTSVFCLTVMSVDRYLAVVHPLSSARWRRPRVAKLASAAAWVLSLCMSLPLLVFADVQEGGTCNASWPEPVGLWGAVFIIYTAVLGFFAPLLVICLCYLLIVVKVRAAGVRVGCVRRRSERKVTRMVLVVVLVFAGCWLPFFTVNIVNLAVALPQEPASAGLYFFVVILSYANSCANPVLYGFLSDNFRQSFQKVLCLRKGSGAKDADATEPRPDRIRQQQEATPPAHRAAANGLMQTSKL
Protocol: as §1, §3

[5] = CHO cells stably expressing SSTR1, cAMP, read-out: SSTR1 EC50

T1 sequence (P30872 whole entry): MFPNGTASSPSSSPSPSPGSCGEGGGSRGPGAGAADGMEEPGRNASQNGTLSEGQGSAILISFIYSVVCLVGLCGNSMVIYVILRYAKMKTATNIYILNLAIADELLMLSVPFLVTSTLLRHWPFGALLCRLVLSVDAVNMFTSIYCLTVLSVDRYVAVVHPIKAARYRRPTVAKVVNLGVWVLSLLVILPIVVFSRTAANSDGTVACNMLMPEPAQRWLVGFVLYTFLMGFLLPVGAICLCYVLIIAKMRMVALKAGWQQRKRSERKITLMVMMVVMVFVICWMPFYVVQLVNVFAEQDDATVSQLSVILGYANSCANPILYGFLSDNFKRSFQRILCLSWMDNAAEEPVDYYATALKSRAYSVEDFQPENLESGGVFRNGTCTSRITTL

Compound | EC50 [1] [nM] | EC50 [2] [nM] | EC50 ([3]; CHO cells stably expressing SSTR4, cAMP, read-out: SSTR4 EC50) [nM] | EC50 [4] [nM] | EC50 [3] [nM] | EC50 [1, 5] [nM]
Cc1cc(C)cc(-c2cnc3ncn(-c4cccc(O)c4)c(=O)c3c2CN(C)CCN)c1 [Compound A-1, 5-{[(2-aminoethyl)(methyl)amino]methyl}-6-(3,5-dimethylphenyl)-3-(3-hydroxyphenyl)-3H,4H-pyrido[2,3-d]pyrimidin-4-one] | > 10000 | 100 to 10000 | < 100 | > 10000 | – | –
CCN(CCN)Cc1c(-c2cc(C)cc(C)c2)cnc2ncn(-c3cccc(O)c3)c(=O)c12 [Compound A-2, 5-{[(2-aminoethyl)(ethyl)amino]methyl}-6-(3,5-dimethylphenyl)-3-(3-hydroxyphenyl)-3H,4H-pyrido[2,3-d]pyrimidin-4-one] | > 10000 | 100 to 10000 | – | 100 to 10000 | < 100 | –
Cc1cc(C)cc(-c2cnc3ncn(-c4cccc(O)c4)c(=O)c3c2CN(C)C(C)CN)c1 (centres unmarked) [Compound A-7, 5-{[(1-aminopropan-2-yl)(methyl)amino]methyl}-6-(3,5-dimethylphenyl)-3-(3-hydroxyphenyl)-3H,4H-pyrido[2,3-d]pyrimidin-4-one] | – | 100 to 10000 | – | – | < 100 | –
Cc1cc(C)cc(-c2cnc3ncn(-c4cccc(O)c4)c(=O)c3c2CN(C)C[C@H](C)N)c1 [Compound A-8, 5-({[(2S)-2-aminopropyl](methyl)amino}methyl)-6-(3,5-dimethylphenyl)-3-(3-hydroxyphenyl)-3H,4H-pyrido[2,3-d]pyrimidin-4-one] | – | 100 to 10000 | – | > 10000 | < 100 | –
Cc1cc(C)cc(-c2cnc3ncn(-c4cccc(O)c4)c(=O)c3c2CN2CCC(N)C2)c1 (centres unmarked) [Compound A-10, 5-[(3-aminopyrrolidin-1-yl)methyl]-6-(3,5-dimethylphenyl)-3-(3-hydroxyphenyl)-3H,4H-pyrido[2,3-d]pyrimidin-4-one] | – | > 10000 | – | – | 100 to 10000 | –
Cc1cc(C)cc(-c2cnc3ncn(-c4cccc(O)c4)c(=O)c3c2CN2CCCC2CN)c1 (centres unmarked) [Compound A-11, 5-{[2-(aminomethyl)pyrrolidin-1-yl]methyl}-6-(3,5-dimethylphenyl)-3-(3-hydroxyphenyl)-3H,4H-pyrido[2,3-d]pyrimidin-4-one] | 100 to 10000 | – | – | – | < 100 | –
Cc1cc(C)cc(-c2cnc3ncn(-c4cccc(O)c4)c(=O)c3c2CN(C)CC2(N)CCCC2)c1 [Compound A-12, 5-({[(1-aminocyclopentyl)methyl](methyl)amino}methyl)-6-(3,5-dimethylphenyl)-3-(3-hydroxyphenyl)-3H,4H-pyrido[2,3-d]pyrimidin-4-one] | – | 100 to 10000 | – | 100 to 10000 | < 100 | –
Cc1cc(C)cc(-c2cnc3ncn(-c4cccc(O)c4)c(=O)c3c2CN(C)CC2CCCCN2)c1 (centres unmarked) [Compound A-13, 6-(3,5-dimethylphenyl)-3-(3-hydroxyphenyl)-5-{[methyl(piperidin-2-ylmethyl)amino]methyl}-3H,4H-pyrido[2,3-d]pyrimidin-4-one] | 100 to 10000 | < 100 | – | > 10000 | < 100 | –
Cc1cc(C)cc(-c2cnc3ncn(-c4cccc(O)c4)c(=O)c3c2CN(C)C[C@H]2CCCCN2)c1 [Compound A-14, 6-(3,5-dimethylphenyl)-3-(3-hydroxyphenyl)-5-({methyl[(2R)-piperidin-2-ylmethyl]amino}methyl)-3H,4H-pyrido[2,3-d]pyrimidin-4-one] | > 10000 | < 100 | – | > 10000 | < 100 | –
Cc1cc(C)cc(-c2cnc3ncn(-c4cccc(O)c4)c(=O)c3c2CN(C)C[C@@H]2CCCCN2)c1 [Compound A-15, 6-(3,5-dimethylphenyl)-3-(3-hydroxyphenyl)-5-({methyl[(2S)-piperidin-2-ylmethyl]amino}methyl)-3H,4H-pyrido[2,3-d]pyrimidin-4-one] | 100 to 10000 | < 100 | – | 100 to 10000 | < 100 | –
Cc1cc(C)cc(-c2cnc3ncn(-c4cccc(O)c4)c(=O)c3c2CN(C)C[C@H]2CCCN2)c1 [Compound A-16, 6-(3,5-dimethylphenyl)-3-(3-hydroxyphenyl)-5-({methyl[(2R)-pyrrolidin-2-ylmethyl]amino}methyl)-3H,4H-pyrido[2,3-d]pyrimidin-4-one] | > 10000 | < 100 | – | > 10000 | < 100 | –
Cc1cc(C)cc(-c2cnc3ncn(-c4cccc(O)c4)c(=O)c3c2CN(C)C[C@@H]2CCCN2)c1 [Compound A-17, 6-(3,5-dimethylphenyl)-3-(3-hydroxyphenyl)-5-({methyl[(2S)-pyrrolidin-2-ylmethyl]amino}methyl)-3H,4H-pyrido[2,3-d]pyrimidin-4-one] | 100 to 10000 | < 100 | – | – | < 100 | –
Cc1cc(C)cc(-c2cnc3ncn(-c4cccc(O)c4)c(=O)c3c2CN(C)C[C@@H]2CCN2)c1 [Compound A-18, 5-({[(2S)-azetidin-2-ylmethyl](methyl)amino}methyl)-6-(3,5-dimethylphenyl)-3-(3-hydroxyphenyl)-3H,4H-pyrido[2,3-d]pyrimidin-4-one] | 100 to 10000 | 100 to 10000 | – | – | < 100 | –
Cc1cc(C)cc(-c2cnc3ncn(-c4cccc(O)c4)c(=O)c3c2CN(C)CC2COCCN2)c1 (centres unmarked) [Compound A-19, 6-(3,5-dimethylphenyl)-3-(3-hydroxyphenyl)-5-{[methyl(morpholin-3-ylmethyl)amino]methyl}-3H,4H-pyrido[2,3-d]pyrimidin-4-one] | – | < 100 | – | > 10000 | < 100 | –
Cc1cc(Cl)cc(-c2cnc3ncn(-c4cccc(O)c4)c(=O)c3c2CN(C)C[C@@H]2CCCN2)c1 [Compound A-30, 6-(3-chloro-5-methylphenyl)-3-(3-hydroxyphenyl)-5-({methyl[(2S)-pyrrolidin-2-ylmethyl]amino}methyl)-3H,4H-pyrido[2,3-d]pyrimidin-4-one] | 100 to 10000 | < 100 | – | 100 to 10000 | < 100 | –
COc1cccc(-n2cnc3ncc(-c4cc(C)cc(C)c4)c(CN(C)C[C@@H]4CCCN4)c3c2=O)c1 [Compound A-33, 6-(3,5-dimethylphenyl)-3-(3-methoxyphenyl)-5-({methyl[(2S)-pyrrolidin-2-ylmethyl]amino}methyl)-3H,4H-pyrido[2,3-d]pyrimidin-4-one] | – | 100 to 10000 | – | – | < 100 | –
CN(Cc1c(-c2cc(F)cc(Cl)c2)cnc2ncn(-c3cccc(O)c3)c(=O)c12)C[C@@H]1CCCN1 [Compound A-35, 6-(3-chloro-5-fluorophenyl)-3-(3-hydroxyphenyl)-5-({methyl[(2S)-pyrrolidin-2-ylmethyl]amino}methyl)-3H,4H-pyrido[2,3-d]pyrimidin-4-one] | 100 to 10000 | < 100 | – | 100 to 10000 | < 100 | –
Cc1cc(F)cc(-c2cnc3ncn(-c4cccc(O)c4)c(=O)c3c2CN(C)C[C@@H]2CCCN2)c1 [Compound A-36, 6-(3-fluoro-5-methylphenyl)-3-(3-hydroxyphenyl)-5-({methyl[(2S)-pyrrolidin-2-ylmethyl]amino}methyl)-3H,4H-pyrido[2,3-d]pyrimidin-4-one] | 100 to 10000 | 100 to 10000 | – | > 10000 | < 100 | –
Cc1cc(C)cc(-c2cnc3ncn(-c4cccc(CO)c4)c(=O)c3c2CN(C)C[C@@H]2CCCN2)c1 [Compound A-40, 6-(3,5-dimethylphenyl)-3-[3-(hydroxymethyl)phenyl]-5-({methyl[(2S)-pyrrolidin-2-ylmethyl]amino}methyl)-3H,4H-pyrido[2,3-d]pyrimidin-4-one] | – | 100 to 10000 | – | – | < 100 | –
Cc1cc(C)cc(-c2cnc3ncn(-c4ccc(O)cc4)c(=O)c3c2CN(C)C[C@@H]2CCCN2)c1 [Compound A-41, 6-(3,5-dimethylphenyl)-3-(4-hydroxyphenyl)-5-({methyl[(2S)-pyrrolidin-2-ylmethyl]amino}methyl)-3H,4H-pyrido[2,3-d]pyrimidin-4-one] | – | 100 to 10000 | – | – | < 100 | –
CNC(=O)c1cccc(-n2cnc3ncc(-c4cc(C)cc(C)c4)c(CN(C)C[C@@H]4CCCN4)c3c2=O)c1 [Compound A-43, 3-[6-(3,5-dimethylphenyl)-5-({methyl[(2S)-pyrrolidin-2-ylmethyl]amino}methyl)-4-oxo-3H,4H-pyrido[2,3-d]pyrimidin-3-yl]-N-methylbenzamide] | – | 100 to 10000 | – | – | < 100 | –
Cc1cc(Cl)cc(-c2cnc3ncn(-c4cc(O)cc(F)c4)c(=O)c3c2CN(C)C[C@@H]2CCCN2)c1 [Compound A-47, 6-(3-chloro-5-methylphenyl)-3-(3-fluoro-5-hydroxyphenyl)-5-({methyl[(2S)-pyrrolidin-2-ylmethyl]amino}methyl)-3H,4H-pyrido[2,3-d]pyrimidin-4-one] | – | < 100 | – | 100 to 10000 | – | 100 to 10000
Cc1cc(Cl)cc(-c2cnc3ncn(-c4cc(O)cc(F)c4)c(=O)c3c2CN(C)C[C@H]2CCCN2)c1 [Compound A-53, 6-(3-chloro-5-methylphenyl)-3-(3-fluoro-5-hydroxyphenyl)-5-({methyl[(2R)-pyrrolidin-2-ylmethyl]amino}methyl)-3H,4H-pyrido[2,3-d]pyrimidin-4-one] | – | < 100 | – | > 10000 | – | 100 to 10000
